Values quoted from earlier work in publication PMC9773016, “Strebluses E–H, four new stilbene-like derivatives from the stems of Streblus ilicifolius” (RSC Advances, 2022).

Target: Mushroom tyrosinase (Agaricus bisporus, UniProt C7FF04)
Parameters: method as in PMID 34306141, PMID 33939585
Settings: value from previous study of the same authors; read-out: tyrosinase inhibitory effect IC50

Chain of Mushroom tyrosinase (C7FF04 1-392): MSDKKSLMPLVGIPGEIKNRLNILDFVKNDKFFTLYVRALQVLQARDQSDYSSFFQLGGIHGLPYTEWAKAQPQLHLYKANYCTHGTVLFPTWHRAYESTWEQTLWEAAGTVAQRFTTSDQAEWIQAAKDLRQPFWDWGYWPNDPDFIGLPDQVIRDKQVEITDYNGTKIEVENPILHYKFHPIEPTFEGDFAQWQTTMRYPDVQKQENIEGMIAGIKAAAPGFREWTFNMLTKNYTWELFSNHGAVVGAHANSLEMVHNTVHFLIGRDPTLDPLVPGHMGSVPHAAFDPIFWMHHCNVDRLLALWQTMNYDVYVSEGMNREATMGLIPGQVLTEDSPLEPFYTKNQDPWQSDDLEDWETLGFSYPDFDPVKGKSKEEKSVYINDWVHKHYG

CC(C)=CC[C@@]12OC(C)(C)O[C@@H]1CC(/C=C/c1ccc(O)cc1O)=CC2=O [Streblus C]
IC50: 10 nM
